These results are taken from patent US11986471B2, “Compounds and methods of use” (Tango Therapeutics, Inc., priority 2018, dated 2024).

The structures appear in SMILES notation.

In assay [1] the target is T1, PRMT5 (Homo sapiens, UniProt O14744).
T1 construct: purchased Viva (custom protein)
The assay can be described thus: PRMT5 IC50 assay in the presence of SAM as cofactor. The assay is classed as biochemical. The gist of the method:
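Three cofactor conditions are run: SAM-bound, MTA-bound and cofactor-free enzyme. IC50 is read from each; for the SAM and MTA arms it is divided by 1.5 and 13.5 respectively to give Ki.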

Assay [2] concerns the target T1, PRMT5. Briefly: PRMT5 IC50 assay with no cofactor. The assay is classed as biochemical. The gist of the method: (§1)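 Each compound is tested on PRMT5 in the presence of SAM, of MTA, and without any cofactor. Ki values are then back-calculated using fixed factors of 1.5 (SAM) and 13.5 (MTA), and the two Ki values are compared as a ratio.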
The subject of assay [3] is HAP1 MTAP-deleted. Briefly: SDMA in-cell western assay, HAP1 MTAP-deleted cell line. The following applies: for IC50: Homo sapiens, HAP1 MTAP-deleted cell line; for MTAP Intact/Deleted Ratio: IC50 ratio HAP1 MTAP-intact / HAP1 MTAP-deleted. The assay is classed as cell-based. The essentials:
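Symmetric dimethylarginine (SDMA) levels were measured by in-cell western in MTAP-null HAP1 cells, one half of an MTAP-isogenic pair whose partner line expresses endogenous MTAP. Compound potency is reported as IC50.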

Assay [4] deals with T1, PRMT5. The assay can be described thus: PRMT5 IC50 assay in the presence of MTA as cofactor. It is filed as biochemical. Particulars: for IC50: PRMT5, MTA as cofactor. The gist of the method:
as §1

Assay [5] has as its system HAP1 MTAP-intact. The assay can be described thus: SDMA in-cell western assay, HAP1 MTAP-intact cell line. It is filed as cell-based. Particulars: Homo sapiens. The gist of the method: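 Symmetric dimethylarginine (SDMA) levels were measured by in-cell western in an isogenic HAP1 pair, one expressing endogenous MTAP and one MTAP-null, and IC50 values were derived for each line. Compounds whose IC50 ratio between the lines is 3-fold or more are classed as MTAP-selective.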

The mark [6] stands for this setting: ratio between the Ki in the presence of SAM and the Ki in the presence of MTA.
Setting [7] is: ratio between Ki in the presence of SAM and Ki in the presence of MTA.

T1 sequence (O14744 whole entry): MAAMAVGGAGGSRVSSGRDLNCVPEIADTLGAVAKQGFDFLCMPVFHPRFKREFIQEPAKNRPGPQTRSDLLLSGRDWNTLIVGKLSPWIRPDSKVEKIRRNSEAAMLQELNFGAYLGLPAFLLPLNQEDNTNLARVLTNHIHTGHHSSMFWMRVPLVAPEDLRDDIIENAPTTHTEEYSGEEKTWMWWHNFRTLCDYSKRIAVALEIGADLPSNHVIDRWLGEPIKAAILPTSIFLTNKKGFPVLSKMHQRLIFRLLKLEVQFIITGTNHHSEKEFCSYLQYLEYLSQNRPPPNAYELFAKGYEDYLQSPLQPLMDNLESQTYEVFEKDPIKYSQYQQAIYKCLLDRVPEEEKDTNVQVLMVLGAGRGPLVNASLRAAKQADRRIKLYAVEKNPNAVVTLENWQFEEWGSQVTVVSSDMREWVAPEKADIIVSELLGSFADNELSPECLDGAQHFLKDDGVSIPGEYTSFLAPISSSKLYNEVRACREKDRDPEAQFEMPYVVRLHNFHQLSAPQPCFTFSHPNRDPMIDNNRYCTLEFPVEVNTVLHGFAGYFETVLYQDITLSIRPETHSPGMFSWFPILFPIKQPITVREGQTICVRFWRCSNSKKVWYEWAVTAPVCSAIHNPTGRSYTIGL
T1 sequence (Q9BQA1 whole entry partner): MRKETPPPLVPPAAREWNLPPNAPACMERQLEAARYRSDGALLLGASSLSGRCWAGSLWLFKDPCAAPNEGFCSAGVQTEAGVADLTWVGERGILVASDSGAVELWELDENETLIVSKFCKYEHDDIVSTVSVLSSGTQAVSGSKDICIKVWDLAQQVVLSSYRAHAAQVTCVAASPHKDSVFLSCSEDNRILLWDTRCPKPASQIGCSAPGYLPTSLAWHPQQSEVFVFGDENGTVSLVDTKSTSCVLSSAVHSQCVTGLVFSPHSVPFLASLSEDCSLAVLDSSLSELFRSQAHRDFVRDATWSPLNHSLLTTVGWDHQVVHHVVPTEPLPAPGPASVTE

The term IC50 denotes the concentration needed to halve the response being measured. `Cc1ncoc1COc1ccc2c(c1C)CCN(C[C@@H](O)CNC(=O)c1ccc3c(c1)CCN(C(=O)c1ccc(Br)cc1)C3)C2` [Compound 530]: the IC50 in assay [1] was 50 to 500 nM; in assay [2] it was not below 5 µM; in assay [3], not below 10 µM; in assay [4] it was 50 to 500 nM; in assay [5] it was not below 10 µM. Moreover, the “MTAP Intact/Deleted Ratio” value in assay [3] was “C* (an IC50 ratio of less than 3 fold between the IC50 in the HAP1 MTAP-intact cell line and the HAP1 MTAP-deleted cell line)”. In addition, in assay [4] (setting [6]), the “SAM/MTA Ratio” value is “A (a Ki ratio greater than or equal to 10 fold between the Ki in the presence of SAM and the Ki in the presence of MTA)”.
Turning to `CC(C)(C)C(=O)N1CCC(Nc2cc(C(=O)NC[C@H](O)CN3CCc4c(ccc(OCc5cnco5)c4Cl)C3)ccn2)CC1` [Compound 432, (S)—N-(3-(5-chloro-6-(oxazol-5-ylmethoxy)-3,4-dihydroisoquinolin-2(1H)-yl)-2-hydroxypropyl)-2-((1-pivaloylpiperidin-4-yl)amino)isonicotinamide], the IC50 in assay [1] is 50 to 500 nM; in assay [2], 0.5 to 5 µM; in assay [3], 1 to 10 µM; in assay [4] it was 50 to 500 nM; in assay [5], not below 10 µM. The “MTAP Intact/Deleted Ratio” value in assay [3] was “B* (an IC50 ratio greater than or equal to 3 fold but lower than 10 fold between the IC50 in the HAP1 MTAP-intact cell line and the HAP1 MTAP-deleted cell line)”. Moreover, the “SAM/MTA Ratio” value in assay [4] (setting [6]) is “A (a Ki ratio greater than or equal to 10 fold between the Ki in the presence of SAM and the Ki in the presence of MTA)”.
As for `CC(=O)N1CCC(Nc2cc(C(=O)NC[C@H](O)CN3CCc4c(ccc(OCc5ocnc5C)c4C)C3)ncn2)CC1` [Compound 274, (S)-6-((1-acetylpiperidin-4-yl)amino)-N-(2-hydroxy-3-(5-methyl-6-((4-methyloxazol-5-yl)methoxy)-3,4-dihydroisoquinolin-2(1H)-yl)propyl)pyrimidine-4-carboxamide], the IC50 is 50 to 500 nM in assay [1]; not below 5 µM in assay [2] (read-out: No Co-factor IC50); 1 to 10 µM in assay [3]; 50 to 500 nM in assay [4]; not below 10 µM in assay [5]. Further, the “MTAP Intact/Deleted Ratio” value in assay [3] was “C* (an IC50 ratio of less than 3 fold between the IC50 in the HAP1 MTAP-intact cell line and the HAP1 MTAP-deleted cell line)”. In addition, the “SAM/MTA Ratio” value in assay [4] (setting [7]) was “A (a Ki ratio greater than or equal to 10 fold between the Ki in the presence of SAM and the Ki in the presence of MTA)”.
Consider `CC(=O)N1CCC(Nc2cc(C(=O)NC[C@@H](O)CN3CCc4cc(OCc5ocnc5C)ccc4C3)ncn2)CC1` [Compound 249, (R)-6-((1-acetylpiperidin-4-yl)amino)-N-(2-hydroxy-3-(6-((4-methyloxazol-5-yl)methoxy)-3N-dihydroisoquinolin-2(1H)-yl)propyl)pyrimidine-4-carboxamide], for which the IC50 in assay [1] is 500 to 5000 nM; in assay [2] (read-out: No Co-factor IC50) it was not below 5 µM; in assay [3], not below 10 µM; in assay [4], 500 to 5000 nM; in assay [5], not below 10 µM. The “MTAP Intact/Deleted Ratio” value in assay [3] is “C* (an IC50 ratio of less than 3 fold between the IC50 in the HAP1 MTAP-intact cell line and the HAP1 MTAP-deleted cell line)”. Moreover, the “SAM/MTA Ratio” value in assay [4] (setting [7]) is “A (a Ki ratio greater than or equal to 10 fold between the Ki in the presence of SAM and the Ki in the presence of MTA)”.
In the case of `Cc1ncoc1COc1ccc2c(c1C)CCN(C[C@@H](O)CNC(=O)c1cc(NC3COC3)nc(N3CCN(C(C)C)CC3)n1)C2` [Compound 444, N-[(2S)-2-hydroxy-3-{5-methyl-6-[(4-methyl-1,3-oxazol-5-yl)methoxy]-1,2,3,4-tetrahydroisoquinolin-2-yl}propyl]-6-[(oxetan-3-yl)amino]-2-[4-(propan-2-yl)piperazin-1-yl]pyrimidine-4-carboxamide], the IC50 in assay [1] was 50 to 500 nM; in assay [2] it was not below 5 µM; in assay [3], 1 to 10 µM; in assay [4], 50 to 500 nM; in assay [5], not below 10 µM. For the same compound, the “MTAP Intact/Deleted Ratio” value in assay [3] was “C* (an IC50 ratio of less than 3 fold between the IC50 in the HAP1 MTAP-intact cell line and the HAP1 MTAP-deleted cell line)”. In addition, the “SAM/MTA Ratio” value in assay [4] (setting [6]) was “A (a Ki ratio greater than or equal to 10 fold between the Ki in the presence of SAM and the Ki in the presence of MTA)”.
Take `O=C(NC[C@H](O)CN1CCc2c(ccc(OCc3cnco3)c2Cl)C1)c1ccnc(NC2CCCC2)c1` [Compound 382, (S)—N-(3-(5-chloro-6-(oxazol-5-ylmethoxy)-3,4-dihydroisoquinolin-2(1H)-yl)-2-hydroxypropyl)-2-(cxclopentylamino)isonicotinamide]: the IC50 in assay [1] is 50 to 500 nM; in assay [2] (read-out: No Co-factor IC50) it was 0.5 to 5 µM; in assay [3], not below 10 µM; in assay [4], 50 to 500 nM; in assay [5], not below 10 µM. The “MTAP Intact/Deleted Ratio” value in assay [3] was “C* (an IC50 ratio of less than 3 fold between the IC50 in the HAP1 MTAP-intact cell line and the HAP1 MTAP-deleted cell line)”. The “SAM/MTA Ratio” value in assay [4] (setting [7]) is “A (a Ki ratio greater than or equal to 10 fold between the Ki in the presence of SAM and the Ki in the presence of MTA)”.
Consider `COc1cc(C(=O)NC[C@H](O)CN2CCc3cc(OCc4ocnc4C)ccc3C2)cc(NC2CCN(C(C)=O)CC2)n1` [Compound 599, (S)-2-((1-acetylpiperidin-4-yl)amino)-N-(2-hydroxy-3-(6-((4-methyloxazol-5-yl)methoxy)-3,4-dihydroisoquinolin-2(1H)-yl)propyl)-6-methoxyisonicotinamide], for which the IC50 in assay [1] is 50 to 500 nM; in assay [2], 0.5 to 5 µM; in assay [3], less than 1 µM; in assay [4] it was 50 to 500 nM; in assay [5] it was 1 to 10 µM. Further, in assay [3], the “MTAP Intact/Deleted Ratio” value is “A* (an IC50 ratio greater than or equal to 10 fold between the IC50 in the HAP1 MTAP-intact cell line and the HAP1 MTAP-deleted cell line)”. Besides, the “SAM/MTA Ratio” value in assay [4] (setting [6]) was “A (a Ki ratio greater than or equal to 10 fold between the Ki in the presence of SAM and the Ki in the presence of MTA)”.
As to `COc1ccc(C(=O)N2CCc3cc(C(=O)NC[C@H](O)CN4CCc5c(ccc(OCc6cnco6)c5C)C4)ccc3C2)cc1` [Compound 540, N-[(2S)-2-hydroxy-3-{5-methyl-6-[(1,3-oxazol-5-yl)methoxy]-1,2,3,4-tetrahydroisoquinolin-2-yl}propyl]-2-(4-methoxybenzoyl)-1,2,3,4-tetrahydroisoquinoline-6-carboxamide], the IC50 in assay [1] was 50 to 500 nM; in assay [2] it was 0.5 to 5 µM; in assay [3], 1 to 10 µM; in assay [4], 50 to 500 nM; in assay [5] it was not below 10 µM. Also, the “MTAP Intact/Deleted Ratio” value in assay [3] is “C* (an IC50 ratio of less than 3 fold between the IC50 in the HAP1 MTAP-intact cell line and the HAP1 MTAP-deleted cell line)”. The “SAM/MTA Ratio” value in assay [4] (setting [6]) was “A (a Ki ratio greater than or equal to 10 fold between the Ki in the presence of SAM and the Ki in the presence of MTA)”.
Turning to `CC(=O)N1CCC(Nc2cc(C(=O)NC[C@H](O)CN3CCc4cc(OCc5ocnc5C)c(F)cc4C3)ccn2)CC1` [Compound 625], the IC50 was 50 to 500 nM in assay [1]; 0.5 to 5 µM in assay [2] (read-out: No Co-factor IC50); less than 1 µM in assay [3]; 50 to 500 nM in assay [4]; not below 10 µM in assay [5]. In assay [3], the “MTAP Intact/Deleted Ratio” value is “A* (an IC50 ratio greater than or equal to 10 fold between the IC50 in the HAP1 MTAP-intact cell line and the HAP1 MTAP-deleted cell line)”. In assay [4] (setting [7]), the “SAM/MTA Ratio” value is “A (a Ki ratio greater than or equal to 10 fold between the Ki in the presence of SAM and the Ki in the presence of MTA)”.
On to `Cc1ncoc1COc1ccc2c(c1Cl)CCN(C[C@@H](O)CNC(=O)c1cccc(NC3CCC3)c1)C2` [Compound 344, N-[(2S)-3-{5-chloro-6-[(4-methyl-1,3-oxazol-5-yl)methoxy]-1,2,3,4-tetrahydroisoquinolin-2-yl}-2-hydroxypropyl]-3-(cyclobutylamino)benzamide], for which the IC50 in assay [1] is 50 to 500 nM; in assay [2] (read-out: No Co-factor IC50), not below 5 µM; in assay [3] it was not below 10 µM; in assay [4], 50 to 500 nM; in assay [5], not below 10 µM. Besides, the “MTAP Intact/Deleted Ratio” value in assay [3] was “C* (an IC50 ratio of less than 3 fold between the IC50 in the HAP1 MTAP-intact cell line and the HAP1 MTAP-deleted cell line)”. The “SAM/MTA Ratio” value in assay [4] (setting [7]) was “A (a Ki ratio greater than or equal to 10 fold between the Ki in the presence of SAM and the Ki in the presence of MTA)”.
As for `Cc1c(OCc2cnn[nH]2)ccc2c1CCN(C[C@@H](O)CNC(=O)c1ccnc(NC3CCC3)c1)C2` [Compound 273, (S)—N-(3-(6-((1H-1,2,3-triazol-5-yl)methoxy)-5-methyl-3,4-dihydroisoquinolin-2(1H)-yl)-2-hydroxypropyl)-2-(cyclobutylamino)isonicotinamide], the IC50 in assay [1] was 500 to 5000 nM; in assay [2] (read-out: No Co-factor IC50) it was not below 5 µM; in assay [3], 1 to 10 µM; in assay [4] it was 500 to 5000 nM; in assay [5], not below 10 µM. The “MTAP Intact/Deleted Ratio” value in assay [3] was “C* (an IC50 ratio of less than 3 fold between the IC50 in the HAP1 MTAP-intact cell line and the HAP1 MTAP-deleted cell line)”.
